Laboratory results taken from patent US8735620B2, “Processes for preparing (E)-styrylbenzylsulfone compounds and uses thereof for treating proliferative disorders” (priority 2008, dated 2014).
Like-named read-outs stand apart in the source and are kept apart here.

Assays:
SW480 = assay: Tumor cell killing, SW480; assay type: cell-based, human; conditions: SW480, COLO-RECTAL; read-out: Tumor cell killing (IC50) concentration
Description: (§1) Tissue Culture and Reagents: Paclitaxel was purchased from Sigma. Cell lines were purchased from ATCC. Cell lines were routinely grown in DMEM or RPM1 (CellGro) supplemented with 10% fetal bovine serum (Atlas) and 1 unit/mL penicillin-streptomycin (Gibco).
(§2) A number of tumor cell lines were tested using a dose response end point assay system. The cells were grown in either DMEM or RPMI supplemented with 10% fetal bovine serum and 1 unit/mL Penicillin-Streptomycin solution. The tumor cells were plated into 6 well dishes at a cell density of 1.0×10^5 cells/mL/well and compounds were added 24 h later at various concentrations. Cell counts were determined from duplicate wells after 96 h of treatment. The total number of viable cells was determined by trypan blue exclusion.

[1] = test system: DLD1 (human colorectal tumor cell line); assay: Cytotoxicity assay (trypan blue exclusion, 96 h), DLD1; assay type: cell-based
MIA-PaCa-2 cells = assay: Soft agar colony formation, MIA-PaCa-2; assay type: cell-based, human; conditions: MIA-PaCa-2, dose dependent, three weeks
Description: FIG. 1 Anti-tumor effects of (E)-2,4,6-Trimethoxystyryl-3-Hydroxy-4-Methoxybenzyl Sulfone (6aa). A. 6aa inhibits the growth of parental (MES-SA) and Paclitaxel resistant (MES-SA/DX5) cell lines with equal efficiency. The parental uterine sarcoma cells and the MDR positive (MES-SA/DX5) cells were plated into 6 well dishes and treated with various concentrations of 6aa and Paclitaxel for 96 h. The number of viable cells from duplicate plates was determined by trypan blue exclusion. B. Soft Agar Assays. MIA-PaCa-2 cells (1.0×10^5) were plated in soft agar containing various concentrations of each compound in triplicates. After three weeks of growth, the plates were stained for 48 h using 0.05% nitroblue tetrazolium solution. Representative plates were photographed using an Olympus stereoscope mounted with a Sony digital camera system (DKC5000, Sony Inc).
The soft agar plates were prepared as described by Cosenza, et al (Cosenza, S. C. et al. In Cell Growth, Differentiation and Senescence, Studzinski, G. P., Ed.; Oxford University Press: 1999, 161-176.). Briefly, Noble bottom agar (0.8%) was plated onto 60 mm tissue culture plates. Exponentially growing MIA-PaCa-2 cells (1.0×10^5) were mixed with growth medium with various concentrations of each compound and mixed with Noble agar to a final concentration of 0.4%. Each concentration was plated in triplicate. The top agar was allowed to solidify and the plates were then incubated at 5% CO2 at 37° C. for 3 weeks. The plates were then stained with 0.05% nitroblue tetrazolium (NBT) solution and representative plates were photographed using an Olympus stereoscope mounted with a Sony digital camera system (DKC5000, Sony Inc).

Daudi = assay: Tumor cell killing, Daudi; assay type: cell-based, human; conditions: Burkitt's Lymphoma (B-cell), read-out: Tumor cell killing (IC50) concentration
CEM/C2 = assay: Tumor cell killing, CEM/C2 (camptothecin-resistant subline); assay type: cell-based, human; conditions: *CEM/C2, RESISTANT LEUKEMIC (multi-drug resistant); read-out: Tumor cell killing (IC50) concentration
AGS = assay: Tumor cell killing, AGS; assay type: cell-based, human; conditions: GASTRIC, read-out: Tumor cell killing (IC50) concentration
DU145 = assay: Soft agar colony formation, DU145; assay type: cell-based, human; conditions: DU145, dose dependent
2008 = assay: Tumor cell killing, 2008; assay type: cell-based, human; conditions: 2008, Ovarian; read-out: Tumor cell killing (IC50) concentration
Description: as §1, §2

[2] = test system: human vascular endothelial cells (HUVEC); assay: Cell cycle analysis by flow cytometry, normal cells; assay type: cell-based; conditions: 20 nM, 24 hr intervals
Description: FIG. 2 Preferential tumor cell killing activity of 6aa. A. Cell Cycle analyses. Normal (HUVEC) and tumor cells (DU145) were treated with 20 nM concentration of 6aa and incubated in medium containing 10% fetal bovine serum. At 24 hr intervals, the cells were fixed, stained with propidium iodide and analyzed for their DNA content by flow Cytometry. B. Induction of apoptosis in normal (HUVEC) and tumor cells (DU145) was assessed by western blot analysis of cell lysates treated with 6aa for 24, 48 and 72 h. The Western blots were probed with anti-PARP antibodies to assess the cleavage of the protein.
Human prostate tumor cells, DU145 cells, and normal diploid human lung fibroblasts, HFL-1 cells, were grown in DMEM (Cellgro) supplemented with 10% fetal bovine serum and 1 unit/mL penicillin-streptomycin. The cells were plated onto 100 mm^2 dishes at a cell density of 1.0×10^6 cells/dish, and 24 h later, they were treated with 2.5 μM of the compound. The cells were harvested 24, 48 and 72 h after treatment. The cells were removed from the plate by trypsin digestion and combined with the non-attached cells found in the medium. The cell pellets were washed in phosphate buffered saline (PBS), and fixed in ice cold 70% ethanol for at least 24 h. […] The stained cells were then analyzed on a Becton-Dickinson (BD) (FACScan) flow cytometer and the data analyzed by cell cycle analysis software (Modfit, BD).

[3] = test system: BT20 human breast carcinoma xenograft; assay: Nude mouse xenograft assay
Description: Female athymic (NCr-nu/nu) mice were injected subcutaneously with 0.5-1×10^7 ER-negative human breast tumor cells (BT-20) in 0.2 mL of PBS and the tumors allowed to grow to a size of 100-150 mm^3 in size in about 14 days. The mice were then paired such that the pairs harbored equal sized tumors, which were then used to test the therapeutic effects of 6s and 6ab. A Of the pairs, the animals were treated with either 50 mg/kg 6s following a Q4D schedule or 25 mg/kg using a Q2D schedule or vehicle (DMSO) control. The tumor size was then measured on alternate days in two dimensions and the volume determined using either of the following equations: 1: V=(L×(S^2))π/6); where L is the longer and S is the shorter of the two measurements. B. 6ab was dissolved in PBS and was administered intravenously (50 mg/kg) through the tail vein on every alternate day. Tumor measurements were done as in materials and methods.
Female athymic (NCR-nu/nu, Taconic) nude mice were injected with 0.5-1.0×10^7 BT20 cells subcutaneously in the hind leg using a 1 mL tuberculin syringe equipped with a 271/2 gauge needle. Approximately 14 days later, mice were paired (N=8) and injected with 6ab or Phosphate buffered saline as the vehicle control. The intravenous injections were performed in the mouse tail vein using a 1 mL tuberculin syringe equipped with a 30 gauge needle. The animals were injected following a Q2D×3 schedule. Tumor measurements (two dimensions) were done three times per week using traceable digital vernier calipers (Fisher).

[4] = DLD1, 96 h treatment, read-out: DLD1 IC50
[5] = DLD-1, COLO-RECTAL, Table 2, read-out: Tumor cell killing (IC50) concentration

COc1cc(OC)c(/C=C/S(=O)(=O)Cc2ccc(OC)c(O)c2)c(OC)c1 [6aa, (E)-2,4,6-Trimethoxystyryl-3-Hydroxy-4-Methoxybenzyl Sulfone]
IC50 (SW480): 7 nM
IC50 [1, 4]: 3 nM
IC50 [1, 5]: 8 nM
growth of tumor cells in soft agar (MIA-PaCa-2 cells): complete inhibition of the growth of tumor cells
IC50 (Daudi): 7 nM
IC50 (CEM/C2): 10 nM
IC50 (AGS): 7 nM
growth of tumor cells in soft agar (DU145): complete inhibition of the growth of tumor cells
IC50 2008: 5 nM
effect on cell cycle progression [2]: block of their cell cycle progression in the G1 phase

COc1ccc(CS(=O)(=O)/C=C/c2c(OC)cc(OC)cc2OC)cc1 [6s, (E)-2,4,6-Trimethoxystyryl-4-Methoxybenzyl sulfone]
IC50 [1, 4]: 40 nM
IC50 [1, 5]: 40 nM
IC50 (Daudi): 8 nM
IC50 (CEM/C2): 10 nM
IC50 (AGS): 20 nM
fold increase in tumor volume ([3]; 25 mg/kg Q2D, IP, 22 day period, vehicle 5 fold): 2.5 fold
final tumor volume ([3]; 25 mg/kg Q2D, IP, after 22 days, from 67.5 mm^3): 165 mm^3
tolerability by body weights and physical observations ([3]; 50 mg/kg Q4D or 25 mg/kg Q2D, IP): well tolerated
fold increase in average tumor volume ([3]; 50 mg/kg Q4D, IP, 22 day period, vehicle 5 fold): 2.9 fold
final average tumor volume ([3]; 50 mg/kg Q4D, IP, after 22 days, from 74 mm^3): 217 mm^3
tumor volume response of the majority of the mice ([3]; 8 mice per group): growth arrest or a gradual reduction in their tumor volume
